Results: paper PMC10536928, “Discovery of New Pyrrolo[2,3-d]pyrimidine Derivatives as Potential Multi-Targeted Kinase Inhibitors and Apoptosis Inducers” (Pharmaceuticals, 2023)

How the values were obtained:
Format in all cases: cell-based
Bcl-2 = assay: Apoptotic protein levels assay (ELISA) in HepG2 cells
Source text: (§1) To validate the mechanism of cell death and the induction of apoptosis caused by compound 5k, the expression levels of some apoptotic proteins were investigated. […] Specifically, the levels of caspase-3 (6.9 folds higher than the control) and Bax (2.6 folds higher than the control) were higher in the group treated with 5k compared to the control group. Caspase-3 is a key enzyme involved in the execution of apoptosis, while Bax is a pro-apoptotic protein that promotes cell death. […] Bcl-2 is a protein that inhibits apoptosis, so the lower levels of Bcl-2 in the 5k treated group further support the notion that treatment with 5k may induce apoptosis in HepG2 cells. […] These findings may have implications for the development of novel therapies for diseases involving abnormal cell death, including cancer. Further studies are warranted in order to elucidate the underlying mechanisms of action of compound 5k and to assess its potential therapeutic applications.
(§2) The ELISA technique was employed to assess the impact of compound 5k on the alteration of protein levels associated with caspase-3, BAX, and Bcl-2. Specifically, the following ELISA kits were utilized: KHO1091 (InvitrogenTM, Grand Island, NY, USA) for caspase-3, EIA-4860 and EIA-4487 for BAX, (DRU International INC., Mountainside, NJ, USA), and 99-0042 (InvitrogenTM, Grand Island, NY, USA) for Bcl-2 for the respective measurements. The experimental procedures were conducted according to the instructions provided by the manufacturers and our recently published article. Initially, HepG2 cells were cultured in triplicate in 96-well plates. Following a 24-h incubation period, the cells were subjected to various concentrations of compound 5k, while a control group was treated with 0.1% DMSO (V/V). After an additional 24-h incubation, the absorbance levels were assessed using a BioTek Synergy H1 Multi-mode Reader (Agilent Technologies, Santa Clara, CA, USA) at wavelengths ranging from 450 to 650 nm.

caspase-3 = assay: as above
Source text: as §1, §2

Bax = assay: as above
Source text: as §1, §2

[1] = tested on: hepatocellular carcinoma (HepG2); assay: MTT cytotoxicity assay; details: Homo sapiens, 24 h exposure, mean ± SD of triplicate
Protocol: (§3) The cytotoxic effects of compounds 5a–m were evaluated using a standard MTT method against four different cancer cell lines, namely mammary gland cancer (MCF-7), hepatocellular carcinoma (HepG2), breast cancer (MDA-MB-231), and epithelioid cervix carcinoma (HeLa). […] These findings highlight the potential of these compounds as candidates for further development as cytotoxic agents for cancer treatment.
(§4) The cytotoxicity of compounds 5a–m was assessed against various cancer cell lines and one normal cell line using the described methodology. In brief, the cells were cultured in 96-well plates with a density of 1.0 × 10^4 cells per well, supplemented with 10% fetal bovine serum (FBS), an antibiotic cocktail, and RPMI 11,640 medium. The cells were then incubated for 48 h with 5% CO2 and 100% relative humidity at 37 °C. […] Following treatment, the addition of 20 µL of MTT solution was added to each well and incubation was continued for another 4 h, after which dimethyl sulfoxide (100 µL) was used to dissolve the resulting insoluble formazan. The absorbance was measured at 570 nm using a BioTek EXL 800 plate reader (Agilent Technologies, CA, USA). By comparing the absorbance of treated samples to untreated samples, the relative cell viability percentage was calculated as (A570 of treated samples/A570 of untreated sample) × 100. The IC50 values were determined based on triplicate measurements.

[2] = tested on: mammary gland cancer (MCF-7); assay: MTT cytotoxicity assay; details: 24 h exposure, mean ± SD of triplicate
Protocol: as §3, §4

[3] = tested on: breast cancer (MDA-MB-231); assay: MTT cytotoxicity assay; details: Homo sapiens, 24 h exposure, mean ± SD of triplicate
Protocol: as §3, §4

## O=C(N/N=C/c1ccc(Cl)c(Cl)c1)c1ccc(Nc2ncnc3[nH]ccc23)cc1 [Compound 5k, (E)-4-((7H-Pyrrolo[2,3-d]pyrimidin-4-yl)amino)-N’-(3,4-dichlorobenzylidene)benzohydrazide]
Bcl-2
  Bcl-2 level relative to the control: two-fold lower than the control
Bcl-2; 24 h, ELISA, control 11.7 ± 0.36
  Protein Expression (Pg/mL) Bcl-2: 5.146 ± 0.09 pg/mL
caspase-3
  caspase-3 level, folds higher than the control: 6.9 folds
caspase-3; 24 h, ELISA, control 66.28 ± 4.66
  Protein Expression (Pg/mL) Caspase-3: 453.8 ± 17.4 pg/mL
Bax
  Bax level, folds higher than the control: 2.6 folds
Bax; 24 h, ELISA, control 67.09 ± 4.94
  Protein Expression (Pg/mL) Bax: 173.8 ± 6.61 pg/mL
[1]
  IC50: 41.5 ± 2.6 µM
[2]
  IC50: 59.1 ± 3.5 µM
[2]; Homo sapiens, MCF7, 24 h
  IC50: 60 µM
[3]
  IC50: 51.4 ± 2.8 µM
